Reference: PubChem BioAssay AID2060483 (Molecular Pharmacology Branch, DTP, NCI, 2025)

Test system: K24384-001-R-PDC complex spheroids, viability
Assay: Anticancer human tumor K24384-001-R-PDC patient-derived pancreatic adenocarcinoma cell line growth inhibition [GQUAD]
Settings: for IC50: curve of first compound; for viability, T/C: stronger effect = lower value
How it was run: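 Tumor cells were grown as complex spheroids with HUVEC endothelial cells and mesenchymal stem cells as stroma. G-quadruplex stabilizers were combined with targeted agents over half-log dilutions from near the clinical Cmax, or from 10 microM.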

[1] = second compound 0.0316 µM, first compound 0.0316 µM
[2] = second compound 0.0316 µM, first compound 0.1 µM
[3] = second compound 0.0316 µM, first compound 0.316 µM
[4] = second compound 0.0316 µM, first compound 1 µM
[5] = second compound 0.0316 µM, first compound 3.16 µM
[6] = second compound 0.0316 µM, first compound 10 µM
[7] = second compound 0.1 µM, first compound 0.0316 µM
[8] = second compound 0.1 µM, first compound 0.1 µM
[9] = second compound 0.1 µM, first compound 0.316 µM
[10] = second compound 0.1 µM, first compound 1 µM
[11] = second compound 0.1 µM, first compound 3.16 µM
[12] = second compound 0.1 µM, first compound 10 µM
[13] = second compound 0.316 µM, first compound 0.0316 µM
[14] = second compound 0.316 µM, first compound 0.1 µM
[15] = second compound 0.316 µM, first compound 0.316 µM
[16] = second compound 0.316 µM, first compound 1 µM
[17] = second compound 0.316 µM, first compound 3.16 µM
[18] = second compound 0.316 µM, first compound 10 µM
[19] = second compound 1 µM, first compound 0.0316 µM
[20] = second compound 1 µM, first compound 0.1 µM
[21] = second compound 1 µM, first compound 0.316 µM
[22] = second compound 1 µM, first compound 1 µM
[23] = second compound 1 µM, first compound 3.16 µM
[24] = second compound 1 µM, first compound 10 µM
[25] = second compound 3.16 µM, first compound 0.0316 µM
[26] = second compound 3.16 µM, first compound 0.1 µM
[27] = second compound 3.16 µM, first compound 0.316 µM
[28] = second compound 3.16 µM, first compound 1 µM
[29] = second compound 3.16 µM, first compound 3.16 µM
[30] = second compound 3.16 µM, first compound 10 µM
[31] = second compound 10 µM, first compound 0.0316 µM
[32] = second compound 10 µM, first compound 0.1 µM
[33] = second compound 10 µM, first compound 0.316 µM
[34] = second compound 10 µM, first compound 1 µM
[35] = second compound 10 µM, first compound 3.16 µM
[36] = second compound 10 µM, first compound 10 µM
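Also: spheroids exposed to compounds for seven days.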

Which results are given for `C=CCn1c(=O)c2cnc(Nc3ccc(N4CCN(C)CC4)cc3)nc2n1-c1cccc(C(C)(C)O)n1` + Cc1[nH]c2ccc(F)cc2c1-c1nc2c3cccnc3c3ncccc3c2[nH]1?
IC50 (second compound 0.0316 µM): 0.436 µM; IC50 (second compound 0.1 µM): 0.285 µM; IC50 (second compound 0.316 µM): 0.42 µM; IC50 (second compound 1 µM): 0.241 µM; IC50 (second compound 3.16 µM): 0.192 µM; IC50 (second compound 10 µM): 0.159 µM; viability, T/C [1]: 94.8%; viability, T/C [2]: 77.8%; viability, T/C [3]: 63.1%; viability, T/C [4]: 19.3%; viability, T/C [5]: 14.9%; viability, T/C [6]: 16.6%; viability, T/C [7]: 98.7%; viability, T/C [8]: 95%; viability, T/C [9]: 45.5%; viability, T/C [10]: 19.7%; viability, T/C [11]: 16.8%; viability, T/C [12]: 18.8%; viability, T/C [13]: 89.6%; viability, T/C [14]: 84.5%; viability, T/C [15]: 60.6%; viability, T/C [16]: 17%; viability, T/C [17]: 18.8%; viability, T/C [18]: 15.2%; viability, T/C [19]: 79.5%; viability, T/C [20]: 71.9%; viability, T/C [21]: 43.6%; viability, T/C [22]: 17.2%; viability, T/C [23]: 18.4%; viability, T/C [24]: 16.6%; viability, T/C [25]: 73%; viability, T/C [26]: 63%; viability, T/C [27]: 40%; viability, T/C [28]: 13.6%; viability, T/C [29]: 21.1%; viability, T/C [30]: 19.1%; viability, T/C [31]: 79%; viability, T/C [32]: 53.2%; viability, T/C [33]: 46.2%; viability, T/C [34]: 16.3%; viability, T/C [35]: 14.5%; viability, T/C [36]: 17.1%

What does the source list for `O=c1[nH]cc(F)c(=O)[nH]1` + CN(C)c1ccc(Nc2c3ccc(NC(=O)CCN4CCCC4)cc3nc3cc(NC(=O)CCN4CCCC4)ccc23)cc1?
IC50 (second compound 0.0316 µM): 2.2 µM; IC50 (second compound 0.1 µM): 1.57 µM; IC50 (second compound 0.316 µM): 1.65 µM; IC50 (second compound 1 µM): 1.26 µM; IC50 (second compound 3.16 µM): 1.36 µM; IC50 (second compound 10 µM): 1.75 µM; viability, T/C [1]: 111%; viability, T/C [2]: 71.7%; viability, T/C [3]: 88.4%; viability, T/C [4]: 52.4%; viability, T/C [5]: 42.5%; viability, T/C [6]: 40.3%; viability, T/C [7]: 98.7%; viability, T/C [8]: 100%; viability, T/C [9]: 66.5%; viability, T/C [10]: 59.2%; viability, T/C [11]: 42.7%; viability, T/C [12]: 33.3%; viability, T/C [13]: 94.8%; viability, T/C [14]: 94.8%; viability, T/C [15]: 72.6%; viability, T/C [16]: 59.1%; viability, T/C [17]: 40.4%; viability, T/C [18]: 32.5%; viability, T/C [19]: 90.2%; viability, T/C [20]: 88.8%; viability, T/C [21]: 72.4%; viability, T/C [22]: 57.5%; viability, T/C [23]: 31.3%; viability, T/C [24]: 32.1%; viability, T/C [25]: 83.9%; viability, T/C [26]: 89.5%; viability, T/C [27]: 65.9%; viability, T/C [28]: 57.3%; viability, T/C [29]: 37.6%; viability, T/C [30]: 31.5%; viability, T/C [31]: 83.4%; viability, T/C [32]: 85.2%; viability, T/C [33]: 62.2%; viability, T/C [34]: 69%; viability, T/C [35]: 34.1%; viability, T/C [36]: 31.7%

For `Nc1ccn(C2OC(CO)C(O)C2(F)F)c(=O)n1` (stereo unspecified) + Cc1cnc(CNC(=O)c2c(=O)c3ccc(N4CCCN(C)CC4)nc3n3c2sc2ccccc23)cn1, which IC50 (second compound 0.0316 µM) is on record?
Its IC50 is 0.431 µM.

What about the IC50 (second compound 0.1 µM) of the same compound?
Its IC50 is 0.396 µM.

And the IC50 (second compound 0.316 µM)?
Its IC50 is < 0.0316 µM.

What about the IC50 (second compound 1 µM) of the same compound?
The IC50 was < 0.0316 µM.

What about the IC50 (second compound 3.16 µM) of the same compound?
Its IC50 is < 0.0316 µM.

What about the IC50 (second compound 10 µM) of the same compound?
The IC50 was < 0.0316 µM.

And the viability, T/C [1]?
The viability, T/C was 68%.

What about the viability, T/C [2] of the same compound?
The viability, T/C was 64.8%.

What about the viability, T/C [3] of the same compound?
Its viability, T/C is 58.6%.

What about the viability, T/C [4] of the same compound?
Its viability, T/C is 26.7%.

And the viability, T/C [5]?
Its viability, T/C is 28.4%.

What about the viability, T/C [6] of the same compound?
The viability, T/C was 22.3%.

And the viability, T/C [7]?
Its viability, T/C is 52.5%.

What about the viability, T/C [8] of the same compound?
The viability, T/C was 54%.

What about the viability, T/C [9] of the same compound?
Its viability, T/C is 56.3%.

What about the viability, T/C [10] of the same compound?
Its viability, T/C is 32.5%.

What about the viability, T/C [11] of the same compound?
The viability, T/C was 27.2%.

What about the viability, T/C [12] of the same compound?
The viability, T/C was 20.9%.

And the viability, T/C [13]?
Its viability, T/C is 45.8%.

What about the viability, T/C [14] of the same compound?
Its viability, T/C is 45.6%.

And the viability, T/C [15]?
The viability, T/C was 38.3%.

What about the viability, T/C [16] of the same compound?
Its viability, T/C is 36.9%.

What about the viability, T/C [17] of the same compound?
Its viability, T/C is 32.2%.

And the viability, T/C [18]?
The viability, T/C was 17.6%.

What about the viability, T/C [19] of the same compound?
Its viability, T/C is 40.7%.

What about the viability, T/C [20] of the same compound?
Its viability, T/C is 43.5%.

What about the viability, T/C [21] of the same compound?
Its viability, T/C is 39.7%.

And the viability, T/C [22]?
Its viability, T/C is 41%.

What about the viability, T/C [23] of the same compound?
The viability, T/C was 31.8%.

And the viability, T/C [24]?
The viability, T/C was 16.2%.

And the viability, T/C [25]?
The viability, T/C was 41.3%.

What about the viability, T/C [26] of the same compound?
The viability, T/C was 43.1%.

What about the viability, T/C [27] of the same compound?
Its viability, T/C is 32.3%.

What about the viability, T/C [28] of the same compound?
Its viability, T/C is 36%.

And the viability, T/C [29]?
The viability, T/C was 33.8%.

And the viability, T/C [30]?
The viability, T/C was 12.2%.

And the viability, T/C [31]?
Its viability, T/C is 29.4%.

What about the viability, T/C [32] of the same compound?
The viability, T/C was 19.3%.

And the viability, T/C [33]?
The viability, T/C was 28.6%.

What about the viability, T/C [34] of the same compound?
The viability, T/C was 19.8%.

What about the viability, T/C [35] of the same compound?
Its viability, T/C is 0.34%.

What about the viability, T/C [36] of the same compound?
The viability, T/C was 0.27%.
